Reference: patent publication US8110681B2, “Compounds for the treatment of spinal muscular atrophy and other uses” (The United States of America as represented by the …, priority 2006, dated 2012)
pEC50: −log10 of the molar value. Like-named read-outs stand apart in the source and are kept apart here.

Test system: SMN2-linked luciferase-reporter gene construct
Test: SMN splice reporter assay (SMN2-linked luciferase reporter, Example 10)
Format: cell-based
Conditions: for maximal fold induction: read-out: SMN Splice Reporter Assay (Example 10) Avg MaxFold Increase
Text: Cervical carcinoma cell lines were transformed with a SMN2-linked luciferase-reporter gene construct. The reporter is designed to detect shifts in the alternative splicing of SMN2 sequences. In particular, the reporter is constructed as a fusion of the alternatively spliced sequences of the SMN2 gene and the luciferase gene. Luciferase sequences are in the correct translational reading frame only when the SMN2 sequences are spliced according to the normal SMN1 mechanism (e.g., splicing to include exon 7), which allows for translation of the stable SMN protein. Compounds were tested in the assay by administering the compound to the cell line and detecting an increase in the luciferase activity. The assay is described in greater detail in Zhang et al., Gene Ther., 8, 1532-8 (2001). Compounds were administered as described in Lunn et al, Chem. & Biol, 11, 1489-1493 (2004).
The results are reported as a fold-increase over a baseline reading of transformed cells without any test compound.

[1] = SMN2-linked luciferase reporter, average
[2] = maximum fold increase of reporter signal, average

pEC50 [1] | Compound | maximal fold induction [2] | maximal fold induction (SMN2-linked luciferase reporter, average maximum fold increase)
5.90 | CC(C(=O)O)c1ccc(N2Cc3ccccc3C2=O)c(Br)c1 (stereo not drawn) [ALB-112004] | 1.08 | –
5.43 | CC(C(=O)OC(C)(C)C)c1ccc(N2Cc3cccc(N)c3C2=O)cc1 (stereo not drawn) [ALB-112061] | 1.27 | –
6.48 | CC(C(=O)O)c1ccc(N2Cc3cccc(N)c3C2=O)cc1 (stereo not drawn) [ALB-112062a] | 1.41 | –
6.04 | CC(C(=O)O)c1ccc(N2Cc3cc(-c4cccs4)ccc3C2=O)cc1 (stereo not drawn) [ALB-112063] | 1.2 | –
– | CC(C(=O)OC(C)(C)C)c1ccc(N2Cc3c(Br)cccc3C2=O)cc1 (stereo not drawn) [ALB-112064] | 1.04 | –
5.87 | CC(C(=O)OC(C)(C)C)c1ccc(N2Cc3cccc(Br)c3C2=O)cc1 (stereo not drawn) [ALB-112065] | 1.22 | –
4.66 | CC(C(=O)O)c1ccc(N2Cc3c(Br)cccc3C2=O)cc1 (stereo not drawn) [ALB-112066] | 1.12 | –
5.01 | CC(C(=O)O)c1ccc(N2Cc3cccc(Br)c3C2=O)cc1 (stereo not drawn) [ALB-112067] | 1.36 | –
– | CC(C(=O)OC(C)(C)C)c1ccc(N2Cc3ccc(NS(=O)(=O)c4ccc(Cl)cc4)cc3C2=O)cc1 (stereo not drawn) [ALB-112070] | 1.11 | –
– | CC(C(=O)O)c1ccc(N2Cc3ccc(NS(C)(=O)=O)cc3C2=O)cc1 (stereo not drawn) [ALB-112071] | 1.07 | –
– | CC(C(=O)OC(C)(C)C)c1ccc(N2Cc3ccc(NS(=O)(=O)c4ccccc4)cc3C2=O)cc1 (stereo not drawn) [ALB-112072] | – | 1.07
– | CCNC(=O)C(C)c1ccc(N2Cc3ccccc3C2=O)cc1 (stereo not drawn) [ALB-112073] | 1.18 | –
6.24 | CC(C(=O)Nc1ccccc1)c1ccc(N2Cc3ccccc3C2=O)cc1 (stereo not drawn) [ALB-112075] | 1.25 | –
5.86 | CC(C)NC(=O)C(C)c1ccc(N2Cc3ccccc3C2=O)cc1 (stereo not drawn) [ALB-112076] | 1.12 | –
– | CC(C(=O)N1CCOCC1)c1ccc(N2Cc3ccccc3C2=O)cc1 (stereo not drawn) [ALB-112077] | 1.09 | –
– | CC(C(=O)N1CCCCC1)c1ccc(N2Cc3ccccc3C2=O)cc1 (stereo not drawn) [ALB-112078] | 1.15 | –
– | CNC(=O)C(C)c1ccc(N2Cc3ccccc3C2=O)cc1 (stereo not drawn) [ALB-112079] | 1.14 | –
– | CC(C(=O)OC(C)(C)C)c1ccc(N2Cc3ccccc3C2=O)c(-c2ccc(Cl)c(Cl)c2)c1 (stereo not drawn) [ALB-112080] | 1.03 | –
– | Cc1ccc(-c2cc(C(C)C(=O)OC(C)(C)C)ccc2N2Cc3ccccc3C2=O)cc1 (stereo not drawn) [ALB-112081] | 1.03 | –
– | COc1ccc(-c2cc(C(C)C(=O)OC(C)(C)C)ccc2N2Cc3ccccc3C2=O)cc1 (stereo not drawn) [ALB-112082] | 1.12 | –
– | CCCc1cc(N2Cc3ccccc3C2=O)ccc1C(C)C(=O)O (stereo not drawn) [ALB-112083] | 1.09 | –
– | CC(C(=O)O)c1ccc(N2Cc3ccccc3C2=O)cc1-c1cccs1 (stereo not drawn) [ALB-112084] | 1.11 | –
– | Cc1ccc(-c2cc(C(C)C(=O)O)ccc2N2Cc3ccccc3C2=O)cc1 (stereo not drawn) [ALB-112085.] | 1.08 | –
– | COc1ccc(-c2cc(C(C)C(=O)O)ccc2N2Cc3ccccc3C2=O)cc1 (stereo not drawn) [ALB-112086] | 1.08 | –

pEC50 [1] | Compound | maximal fold induction [2] | maximal fold induction (SMN2-linked luciferase reporter, average maximum fold increase)
– | CC(C(=O)OC(C)(C)C)c1ccc(N2Cc3ncccc3C2=O)cc1 (stereo not drawn) [ALB-112087] | 1.05 | –
– | CC(C(=O)OC(C)(C)C)c1ccc(N2Cc3cccc(-c4ccc(Cl)c(Cl)c4)c3C2=O)cc1 (stereo not drawn) [ALB-112149] | 1.06 | –
– | CC(C(=O)OC(C)(C)C)c1ccc(N2Cc3cccc(-c4ccccc4)c3C2=O)cc1 (stereo not drawn) [ALB-112150] | 1.1 | –
– | Cc1ccc(-c2cccc3c2C(=O)N(c2ccc(C(C)C(=O)OC(C)(C)C)cc2)C3)cc1 (stereo not drawn) [ALB-112151] | 1.11 | –
– | COc1ccc(-c2cccc3c2C(=O)N(c2ccc(C(C)C(=O)OC(C)(C)C)cc2)C3)cc1 (stereo not drawn) [ALB-112152] | 1.04 | –
– | CC(C(=O)OC(C)(C)C)c1ccc(N2Cc3cccc(-c4ccc(Cl)cc4)c3C2=O)cc1 (stereo not drawn) [ALB-112153] | 1.02 | –
– | CC(C(=O)OC(C)(C)C)c1ccc(N2Cc3cccc(-c4cccs4)c3C2=O)cc1 (stereo not drawn) [ALB-112154] | 1.11 | –
4.58 | CC(C(=O)O)c1ccc(N2Cc3cccc(-c4ccccc4)c3C2=O)cc1 (stereo not drawn) [ALB-112155] | 1.19 | –
– | COc1ccc(-c2cccc3c2C(=O)N(c2ccc(C(C)C(=O)O)cc2)C3)cc1 (stereo not drawn) [ALB-112156] | 1.27 | –
4.69 | CC(C(=O)O)c1ccc(N2Cc3cccc(-c4cccnc4)c3C2=O)cc1 (stereo not drawn) [ALB-112157] | 1.2 | –
4.94 | CC(C(=O)O)c1ccc(N2Cc3cccc(-c4cccs4)c3C2=O)cc1 (stereo not drawn) [ALB-112158] | 1.24 | –
– | CC(C(=O)O)c1ccc(N2Cc3ccccc3C2=O)cc1-c1ccco1 (stereo not drawn) [ALB-112160] | 1.02 | –
– | CC(C(=O)O)c1ccc(N2Cc3ccccc3C2=O)c(-c2ccc(Cl)c(Cl)c2)c1 (stereo not drawn) [ALB-112161] | 1.1 | –
– | CC(C(=O)OC(C)(C)C)c1ccc(N2Cc3ccccc3C2=O)c(-c2ccc(Cl)cc2)c1 (stereo not drawn) [ALB-112162] | 1.03 | –
– | CC(C(=O)OC(C)(C)C)c1ccc(N2Cc3ccccc3C2=O)c(-c2ccccc2)c1 (stereo not drawn) [ALB-112163] | 1.03 | –
– | CC(C(=O)O)c1ccc(N2Cc3ccccc3C2=O)c(-c2ccc(Cl)cc2)c1 (stereo not drawn) [ALB-112164] | 1.05 | –
– | CC(C(=O)O)c1ccc(N2Cc3ccccc3C2=O)c(-c2ccccc2)c1 (stereo not drawn) [ALB-112165] | 1.15 | –
– | CC(C(=O)OC(C)(C)C)c1ccc(N2Cc3ccc(Nc4ccc(Cl)cc4)cc3C2=O)cc1 (stereo not drawn) [ALB-112166] | 1.04 | –
– | CC(C(=O)OC(C)(C)C)c1ccc(N2Cc3ccc(N(C)C(=O)c4ccc(Cl)cc4)cc3C2=O)cc1 (stereo not drawn) [ALB-112167] | 1.01 | –
– | CC(C(=O)OC(C)(C)C)c1ccc(N2Cc3ccc(Nc4ccccc4)cc3C2=O)cc1 (stereo not drawn) [ALB-112168] | 1.15 | –
– | CC(C(=O)OC(C)(C)C)c1ccc(N2Cc3ccc(N(C)C(=O)c4ccccc4)cc3C2=O)cc1 (stereo not drawn) [ALB-112169] | 1.07 | –
5.98 | CNc1ccc2c(c1)C(=O)N(c1ccc(C(C)C(=O)OC(C)(C)C)cc1)C2 (stereo not drawn) [ALB-112170] | 1.27 | –
– | CC(C(=O)OC(C)(C)C)c1ccc(N2Cc3ccccc3C2=O)c(-c2cccnc2)c1 (stereo not drawn) [ALB-112172] | 1.04 | –
– | CC(C(=O)OC(C)(C)C)c1ccc(N2Cc3ccccc3C2=O)cc1-c1cccnc1 (stereo not drawn) [ALB-112173] | 1 | –

pEC50 [1] | Compound | maximal fold induction [2] | maximal fold induction (SMN2-linked luciferase reporter, average maximum fold increase)
– | Cc1ccc(-c2cccc3c2C(=O)N(c2ccc(C(C)C(=O)O)cc2)C3)cc1 (stereo not drawn) [ALB-112174] | 1.18 | –
4.77 | CC(C(=O)O)c1ccc(N2Cc3cccc(-c4ccc(Cl)cc4)c3C2=O)cc1 (stereo not drawn) [ALB-112175] | 1.37 | –
– | CC(C(=O)OC(C)(C)C)c1ccc(N2Cc3c(cccc3-c3ccc(Cl)c(Cl)c3)C2=O)cc1 (stereo not drawn) [ALB-112186] | 1.08 | –
– | CC(C(=O)OC(C)(C)C)c1ccc(N2Cc3c(cccc3-c3ccccc3)C2=O)cc1 (stereo not drawn) [ALB-112187] | 1.07 | –
– | Cc1ccc(-c2cccc3c2CN(c2ccc(C(C)C(=O)OC(C)(C)C)cc2)C3=O)cc1 (stereo not drawn) [ALB-112188] | 1.08 | –
– | CC(C(=O)OC(C)(C)C)c1ccc(N2Cc3c(cccc3-c3ccc(Cl)cc3)C2=O)cc1 (stereo not drawn) [ALB-112190] | 1.1 | –
– | CC(C(=O)OC(C)(C)C)c1ccc(N2Cc3c(cccc3-c3cccs3)C2=O)cc1 (stereo not drawn) [ALB-112191] | 1.12 | –
5.24 | COC(=O)C(C)c1ccc(N2Cc3ccccc3C2)cc1 (stereo not drawn) [ALB-112192] | 1.41 | –
– | CC(C(=O)OC(C)(C)C)c1ccc(N2Cc3ccccc3C2=O)c(-c2cncnc2)c1 (stereo not drawn) [ALB-112194] | 1.1 | –
– | CC(C(=O)OC(C)(C)C)c1ccc(N2Cc3ccccc3C2=O)cc1-c1cncnc1 (stereo not drawn) [ALB-112195] | 1.06 | –
– | CC(C(=O)OC(C)(C)C)c1ccc(N2Cc3ccccc3C2=O)c(-c2cccs2)c1 (stereo not drawn) [ALB-112196] | 1.09 | –
– | CC(C(=O)OC(C)(C)C)c1ccc(N2Cc3ccccc3C2=O)cc1-c1ccccc1 (stereo not drawn) [ALB-112197] | 1.07 | –
– | CC(C(=O)O)c1ccc(N2Cc3ccccc3C2=O)c(-c2cccnc2)c1 (stereo not drawn) [ALB-112198] | 1.12 | –
– | CC(C(=O)O)c1ccc(N2Cc3ccccc3C2=O)cc1-c1cccnc1 (stereo not drawn) [ALB-112199] | 1.08 | –
– | CC(C(=O)O)c1ccc(N2Cc3c(cccc3-c3ccccc3)C2=O)cc1 (stereo not drawn) [ALB-112220] | 1.22 | –
– | Cc1ccc(-c2cccc3c2CN(c2ccc(C(C)C(=O)O)cc2)C3=O)cc1 (stereo not drawn) [ALB-112221] | 1.33 | –
– | COc1ccc(-c2cccc3c2CN(c2ccc(C(C)C(=O)O)cc2)C3=O)cc1 (stereo not drawn) [ALB-112222] | 1.42 | –
4.96 | CC(C(=O)O)c1ccc(N2Cc3c(cccc3-c3ccc(Cl)cc3)C2=O)cc1 (stereo not drawn) [ALB-112223] | 1.31 | –
– | CC(C(=O)O)c1ccc(N2Cc3c(cccc3-c3cccnc3)C2=O)cc1 (stereo not drawn) [ALB-112224] | 1.3 | –
– | CC(C(=O)O)c1ccc(N2Cc3c(cccc3-c3cccs3)C2=O)cc1 (stereo not drawn) [ALB-112225] | 1.07 | –
4.58 | CC(C(=O)O)c1ccc(N2Cc3c(cccc3-c3ccc(Cl)c(Cl)c3)C2=O)cc1 (stereo not drawn) [ALB-112226] | 1.44 | –
6.17 | CC(C(=O)O)c1ccc(N2Cc3cc4ccsc4cc3C2=O)cc1 (stereo not drawn) [ALB-112228] | 1.27 | –
– | CC(C(=O)O)c1ccc(N2Cc3cccnc3C2=O)cc1 (stereo not drawn) [ALB-112229a] | 1.13 | –
– | CC(C)(C)OC(=O)Cc1ccc(N2Cc3ccccc3C2=O)cc1 [ALB-112230] | 1.1 | –
